Experiments:
M21 = assay: Antiproliferative activity against human M21 cells assessed as inhibition of cell proliferation measured after 48 hrs by SRB assay; type: functional, cell-based; settings: M21, 48 h
HT-29 = assay: Antiproliferative activity against human HT-29 cells assessed as inhibition of cell proliferation measured after 48 hrs by SRB assay; type: functional, cell-based; settings: HT-29, 48 h
HaCaT = assay: Antiproliferative activity against human HaCaT cells assessed as inhibition of cell proliferation measured after 48 hrs by SRB assay; type: cell-based
HT-1080 = assay: Antiproliferative activity against human HT-1080 cells assessed as inhibition of cell proliferation measured after 48 hrs by SRB assay; type: functional, cell-based; settings: HT-1080, 48 h

Compound | IC50 (M21) | IC50 (HT-29) | IC50 (HaCaT) | IC50 (HT-1080)
COc1cc([C@@H]2c3cc4c(cc3[C@@H](N=[N+]=[N-])[C@H]3COC(=O)[C@H]23)OCO4)cc(OC)c1O | 600 nM | 600 nM | 500 nM | 600 nM
COc1cc([C@@H]2c3cc4c(cc3[C@@H](n3cc(CNC(=O)[C@@H]5O[C@H](OC)[C@H](O)[C@@H](O)[C@@H]5O)nn3)[C@H]3COC(=O)[C@H]23)OCO4)cc(OC)c1O | > 100000 nM | > 100000 nM | > 100000 nM | > 100000 nM
COc1cc([C@@H]2c3cc4c(cc3[C@@H](n3cc(CNC(=O)[C@@H]5O[C@H](OC)[C@H](N)[C@@H](O)[C@@H]5O)nn3)[C@H]3COC(=O)[C@H]23)OCO4)cc(OC)c1O | > 100000 nM | > 100000 nM | > 100000 nM | > 100000 nM
COc1cc([C@@H]2c3cc4c(cc3[C@@H](n3cc(CNC(=O)[C@H]5O[C@H](OC)[C@H](NC(=O)OC(C)(C)C)[C@@H](O)[C@@H]5O)nn3)[C@H]3COC(=O)[C@H]23)OCO4)cc(OC)c1O | > 1000 nM | > 1000 nM | > 1000 nM | > 1000 nM
COc1cc([C@@H]2c3cc4c(cc3[C@@H](n3cc(CNC(=O)[C@@H]5O[C@H](OC)[C@H](NC(C)=O)[C@@H](O)[C@@H]5O)nn3)[C@H]3COC(=O)[C@H]23)OCO4)cc(OC)c1O | > 100000 nM | > 100000 nM | > 100000 nM | > 100000 nM
COc1cc([C@@H]2c3cc4c(cc3[C@@H](O)[C@H]3COC(=O)[C@H]23)OCO4)cc(OC)c1O [4'-DEMETHYLEPIPODOPHYLLOTOXIN] | 170 nM | 150 nM | 160 nM | 110 nM
COc1ccc(/C=C\c2cc(OC)c(OC)c(OC)c2)cc1O [COMBRETASTATIN A4] | 1.9 nM | > 1000 nM | 3.4 nM | 2.6 nM
COc1cc([C@@H]2c3cc4c(cc3[C@@H](O[C@@H]3O[C@@H]5CO[C@@H](C)O[C@H]5[C@H](O)[C@H]3O)[C@H]3COC(=O)[C@H]23)OCO4)cc(OC)c1O [ETOPOSIDE] | 200 nM | 9000 nM | 6000 nM | 2000 nM

— ChEMBL document CHEMBL5032537, “Synthetic development of sugar amino acid oligomers towards novel podophyllotoxin analogues” (Bioorg Med Chem, 2021)
